Drawing on patent publication US10287267B2, “Isoquinolin-3-yl carboxamides and preparation and use thereof” (Samumed, LLC, priority 2016, dated 2019), this text covers EC50 and inhibition for 18 compounds.

SMILES strings stand for the structures. Where two headings read alike, the source gives them in different places.

The target of experiment [1] is recombinant DYRK1A kinase (Homo sapiens (Human), UniProt Q13627). The experiment is described as follows: DYRK1A kinase assay (Ser/Thr 18 peptide Z-lyte FRET).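 Also: Read-out is the coumarin to fluorescein emission ratio, referenced to unphosphorylated (0%) and phosphorylated (100%) Ser/Thr 18 peptide controls, values from dose-response curves by non-linear regression.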 The experiment is classed as biochemical. As to conditions: 30 μM ATP, 1 h room temperature.
Experiment [2] concerns Wnt pathway (Sp5-Luc reporter, TCF/LEF binding sites) in SW480 colon carcinoma cells. The experiment is described as follows: Screening assay for Wnt activity: Sp5-Luc reporter gene assay.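 As to all read-outs here: firefly luciferase luminescence read in stably transduced SW480 cells carrying the Sp5 promoter reporter with eight TCF/LEF sites, compounds given in 0.1% DMSO final.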 To be noted: Homo sapiens; for EC50: Sp5-Luc reporter, SW480 cells, 36 to 48 hours; for inhibition at 10 µM: SW480, read-out: percent inhibition at 10 μM. It is filed as cell-based, human. In general terms: In a reporter assay the amount or activity of a reporter protein is the signal.
Procedure: The screening assay for Wnt activity is described as follows.
Following incubation, 15 μl of BriteLite Plus luminescence reagent (Perkin Elmer) was added to each well of the 384-well assay plates. The plates were placed on an orbital shaker for 2 min and then luminescence was quantified using the Envision (Perkin Elmer) plate reader.

Experiment [3] has as its system Tau phosphorylation at Ser396 (pSer396). Nature of the experiment: Tau phosphorylation assay (pSer396 ELISA / western blot) in SH-SY5Y cells.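 Also: EC50 for reduction of Tau pSer396 in lysed cells, measured by colorimetric ELISA or chemiluminescent western blot, both using the same pSer396 antibody.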 The experiment is classed as cell-based, human. To be noted: Homo sapiens, read-out: pSer396 Tau EC50.
Experiment [4] concerns the target recombinant GSK3β kinase (Homo sapiens (Human), UniProt P49841). The experiment is described as follows: GSK3β kinase assay (Ser/Thr 09 peptide Z-lyte FRET).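 Also: kinase activity read as coumarin to fluorescein emission ratio, 11-point threefold dilutions from 10 µM to 0.0003 µM in duplicate, unphosphorylated and phosphorylated peptide as 0% and 100% controls.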 The experiment is classed as biochemical. To be noted: 46 μM ATP, 1 h room temperature.
Experiment [5] concerns IL-6. Nature of the experiment: IL-6 inhibition in LPS-stimulated human peripheral blood mononuclear cells (HTRF).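 As to all read-outs here: IL-6 detected by HTRF with an XL665- and Cryptate-labelled anti-IL-6 antibody pair, samples run in duplicate, EC50 obtained from a four-parameter Levenberg-Marquardt curve fit.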 The experiment is classed as cell-based. As to conditions: Homo sapiens, PBMC; for EC50: Table 9, huPBMCs, LPS 50 ng/mL, 22 hours, dose-response starting from 10 μM; for inhibition at 10 µM: read-out: percent value in parentheses beside EC50 >10 μM. (In general: Time-resolved FRET reads energy transfer from a long-lived donor to a nearby acceptor.)
Procedure: After 22 hour incubation, a mixture of anti-IL6 XL665 and anti-IL-6 Cryptate diluted in reconstitution buffer (Catalog #62IL6PEC, Cisbio Inc., Bedford, Mass.) was added to each well. […] All samples were processed in duplicate. […] EC50 was determined using software generated by Dotmatics Limited (Windhill Bishops Stortford Herts, UK) using the Levenberg-Marquardt 4 parameter fitting procedure with finite different gradients.

Experiment [6] deals with SW480 colon carcinoma cells. The experiment is described as follows: Cell viability assay (CellTiter-Glo). It is filed as cell-based, human. As to conditions: Homo sapiens; for EC50: 96 h, SW480 cells, CellTiter-Glo, four days incubation; for inhibition at 10 µM: SW480, read-out: percent inhibition at 10 μM.
Setting [7] is: SH-SY5Y cells, overnight (16-18 h) exposure.

Sequence of recombinant GSK3β kinase (P49841 whole entry): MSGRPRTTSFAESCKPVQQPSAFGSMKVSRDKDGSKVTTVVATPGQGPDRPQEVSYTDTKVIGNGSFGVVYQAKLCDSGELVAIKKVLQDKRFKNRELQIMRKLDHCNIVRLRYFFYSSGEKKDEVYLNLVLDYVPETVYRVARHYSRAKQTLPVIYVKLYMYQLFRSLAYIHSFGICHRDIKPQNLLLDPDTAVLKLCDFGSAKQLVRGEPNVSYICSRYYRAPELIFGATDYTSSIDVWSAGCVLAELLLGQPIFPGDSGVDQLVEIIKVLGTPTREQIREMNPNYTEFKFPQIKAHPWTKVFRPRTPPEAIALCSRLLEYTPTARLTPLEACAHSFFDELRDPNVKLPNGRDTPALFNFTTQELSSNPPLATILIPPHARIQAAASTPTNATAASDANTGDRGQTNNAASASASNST

As usually defined, the EC50 is the concentration needed to bring the measured effect to its halfway point. For `CN(C)C1CCC(C(=O)Nc2cc3cc(-c4cnn(C)c4)ccc3cn2)CC1` (stereo in doubt) [Compound 1081, trans-4-(Dimethylamino)-N-(6-(1-methyl-1H-pyrazol-4-yl)isoquinolin-3-yl)cyclohexane-1-carboxamide], the EC50 in experiment [1] came out at 2.2 nM; in experiment [2], 2730 nM; in experiment [3] (setting [7]) it was 470 nM; in experiment [4], 82 nM; in experiment [5], 1100 nM; in experiment [6], 4650 nM.
With `CC(F)(F)CN1CCC(C(=O)Nc2cc3cc(-c4cncs4)ccc3cn2)CC1` [Compound 731, 1-(2,2-Difluoropropyl)-N-(6-(thiazol-5-yl)isoquinolin-3-yl)piperidine-4-carboxamide], the EC50 in experiment [1] turned out to be 1.4 nM; in experiment [2], 3050 nM; in experiment [3] (setting [7]), 450 nM; in experiment [4], 42 nM; in experiment [5] it was 1180 nM; in experiment [6] it was 1100 nM.
Regarding `Cn1ncc(-c2ccc3cnc(NC(=O)[C@H]4CC[C@H](CO)CC4)cc3c2)c1CN1CCCCC1` [Compound 798, trans-4-(Hydroxymethyl)-N-(6-(1-methyl-5-(piperidin-1-ylmethyl)-1H-pyrazol-4-yl)isoquinolin-3-yl)cyclohexane-1-carboxamide], the EC50 in experiment [1] is 3.1 nM; in experiment [2], 594 nM; in experiment [3] (setting [7]), 320 nM; in experiment [4] it was 31 nM; in experiment [5], 1270 nM; in experiment [6], 613 nM.
`Cn1ncc(-c2ccc3cnc(NC(=O)C4CCOCC4)cc3c2)c1CN1CCCCC1` [Compound 839, N-(6-(1-Methyl-5-(piperidin-1-ylmethyl)-1H-pyrazol-4-yl)isoquinolin-3-yl) tetrahydro-2H-pyran-4-carboxamide]: the EC50 in experiment [1] was 3.8 nM; in experiment [2], 776 nM; in experiment [3] (setting [7]) it was 254 nM; in experiment [4] it was 17 nM; in experiment [5], 3280 nM; in experiment [6] it was 1180 nM.
On to `Cc1nnc(-c2ccc3cnc(NC(=O)[C@H]4CC[C@H](CO)CC4)cc3c2)s1` [Compound 888, trans-4-(Hydroxymethyl)-N-(6-(5-methyl-1,3,4-thiadiazol-2-yl)isoquinolin-3-yl)cyclohexane-1-carboxamide], for which the EC50 was determined as 1.4 nM in experiment [1]; 1040 nM in experiment [2]; 195 nM in experiment [3] (setting [7]); 8 nM in experiment [4]; 3940 nM in experiment [5]; 2470 nM in experiment [6].
As for `Cc1nnc(-c2ccc3cnc(NC(=O)CN4C5CCC4CC5)cc3c2)s1` [Compound 959, 2-(7-Azabicyclo[2.2.1]heptan-7-yl)-N-(6-(5-methyl-1,3,4-thiadiazol-2-yl)isoquinolin-3-yl)acetamide], the EC50 in experiment [1] was 15.4 nM; in experiment [2], 4240 nM; in experiment [3] (SH-SY5Y), 443 nM; in experiment [4] it was 45 nM; in experiment [5] it was > 10000 nM; in experiment [6], > 10000 nM. In addition, the inhibition at 10 µM in experiment [5] was 6.1%; in experiment [6], 45%.
For `Cc1nnc(-c2ccc3cnc(NC(=O)CN4C5CCC4COC5)cc3c2)s1` [Compound 962, 2-(3-Oxa-8-azabicyclo[3.2.1]octan-8-yl)-N-(6-(5-methyl-1,3,4-thiadiazol-2-yl)isoquinolin-3-yl)acetamide], the EC50 is 23.6 nM in experiment [1]; > 10000 nM in experiment [2]; 447 nM in experiment [3] (SH-SY5Y); 57 nM in experiment [4]; > 10000 nM in experiment [5]; > 10000 nM in experiment [6]. Moreover, the results for the inhibition at 10 µM in experiment [2], in experiment [5] and in experiment [6] were 45%, 9.6% and 30.9%, respectively.
With `CN1CCC(C(=O)Nc2cc3cc(-c4cnn(C)c4)c(Cl)cc3cn2)CC1` [Compound 1027, N-(7-Chloro-6-(1-methyl-1H-pyrazol-4-yl)isoquinolin-3-yl)-1-methylpiperidine-4-carboxamide], the EC50 in experiment [1] was 50 nM; in experiment [2] it was 875 nM; in experiment [3] (setting [7]), 2200 nM; in experiment [4], 3070 nM; in experiment [5] it was > 10000 nM; in experiment [6], 488 nM. Also, the inhibition at 10 µM in experiment [5] turned out to be 0%.
Turning to `Cc1ncc(-c2ccc3cnc(NC(=O)CN4CCCCC4)cc3c2)o1` [Compound 1028, N-(6-(2-Methyloxazol-5-yl)isoquinolin-3-yl)-2-(piperidin-1-yl)acetamide], the EC50 came to 22.5 nM in experiment [1]; 3870 nM in experiment [2]; 536 nM in experiment [3] (setting [7]); 104 nM in experiment [4]; 1930 nM in experiment [5]; 3520 nM in experiment [6].
As for `Cn1cc(-c2ccc3cnc(NC(=O)CCN4CCOCC4)cc3c2)cn1` [Compound 1034, N-(6-(1-Methyl-1H-pyrazol-4-yl)isoquinolin-3-yl)-3-morpholinopropanamide], the EC50 in experiment [1] was found to be 1.9 nM; in experiment [2] it was 2040 nM; in experiment [3] (setting [7]) it was 430 nM; in experiment [4], 27 nM; in experiment [5] it was 3320 nM; in experiment [6] it was 3240 nM.
For `Cn1cc(-c2ccc3cnc(NC(=O)[C@H]4C[C@H](N5CCOCC5)C4)cc3c2)cn1` [Compound 1035, trans-N-(6-(1-Methyl-1H-pyrazol-4-yl)isoquinolin-3-yl)-3-morpholinocyclobutane-1-carboxamide], the EC50 in experiment [1] turned out to be 2.6 nM; in experiment [2], 1370 nM; in experiment [3] (setting [7]), 129 nM; in experiment [4], 10 nM; in experiment [5], 1030 nM; in experiment [6], 2460 nM.
Take `CN1CCC(N(C)C(=O)Nc2cc3cc(-c4cnn(C)c4)ccc3cn2)CC1` [Compound 1037, 1-methyl-3-(6-(1-methyl-1H-pyrazol-4-yl)isoquinolin-3-yl)-1-(1-methylpiperidin-4-yl)urea]: the EC50 in experiment [1] was 10.2 nM; in experiment [2], 3640 nM; in experiment [3] (setting [7]), > 10000 nM; in experiment [4], 1920 nM; in experiment [5], 7520 nM; in experiment [6], > 10000 nM. In addition, in experiment [6], the inhibition at 10 µM amounted to 32.7%.
For the compound `CNc1ncc(-c2ccc3cnc(NC(=O)C4CCNCC4)cc3c2)s1` [Compound 1040, N-(6-(2-(Methylamino)thiazol-5-yl)isoquinolin-3-yl)piperidine-4-carboxamide], the EC50 in experiment [1] was determined as 4.8 nM; in experiment [2] it was 1210 nM; in experiment [3] (setting [7]), 1600 nM; in experiment [4], 98 nM; in experiment [5] it was 1180 nM; in experiment [6] it was 2680 nM.
`CNc1ncc(-c2ccc3cnc(NC(=O)C4CCN(C)CC4)cc3c2)s1` [Compound 1041, 1-Methyl-N-(6-(2-(methylamino)thiazol-5-yl)isoquinolin-3-yl)piperidine-4-carboxamide]: the EC50 is 3.3 nM in experiment [1]; 776 nM in experiment [2]; 1300 nM in experiment [3] (setting [7]); 58 nM in experiment [4]; 941 nM in experiment [5]; 2760 nM in experiment [6].
With `CCN(CC)c1ncc(-c2ccc3cnc(NC(=O)CN4CCC(F)CC4)cc3c2)s1` [Compound 1047, N-(6-(2-(Diethylamino)thiazol-5-yl)isoquinolin-3-yl)-2-(4-fluoropiperidin-1-yl)acetamide], the 50% effective concentration (EC50) in experiment [1] is 463 nM; in experiment [2], > 10000 nM; in experiment [3] (setting [7]), > 10000 nM; in experiment [4], 4740 nM; in experiment [5] it was > 10000 nM; in experiment [6], > 10000 nM. In addition, the results for the inhibition at 10 µM in experiment [2], in experiment [5] and in experiment [6] were 32.6%, 4.5% and 41.7%, respectively.
Consider `CCN(CC)c1ncc(-c2ccc3cnc(NC(=O)CN4CCN(C)CC4)cc3c2)s1` [Compound 1048, N-(6-(2-(Diethylamino)thiazol-5-yl)isoquinolin-3-yl)-2-(4-methylpiperazin-1-yl)acetamide], for which the EC50 in experiment [1] is 541 nM; in experiment [2], 9380 nM; in experiment [3] (setting [7]), 4700 nM; in experiment [4], 5810 nM; in experiment [5], > 10000 nM; in experiment [6], 4060 nM. Besides, in experiment [5], the inhibition at 10 µM turned out to be 4.3%.
Regarding `CN1CCN(C(=O)[C@H]2CC[C@H](C(=O)Nc3cc4cc(-c5cnn(C)c5)ccc4cn3)CC2)CC1` [Compound 1091, trans-N-(6-(1-Methyl-1H-pyrazol-4-yl)isoquinolin-3-yl)-4-(4-methylpiperazine-1-carbonyl)cyclohexane-1-carboxamide], the EC50 in experiment [1] is 1.4 nM; in experiment [2], 2950 nM; in experiment [3] (setting [7]), 869 nM; in experiment [4] it was 69 nM; in experiment [6], 1250 nM.
In the case of `CC(C)CN1CCC(C(=O)Nc2cc3cc(-c4nnnn4C)ccc3cn2)CC1` [Compound 1092, 1-Isobutyl-N-(6-(1-methyl-1H-tetrazol-5-yl)isoquinolin-3-yl)piperidine-4-carboxamide], the EC50 was determined as 62.7 nM in experiment [1]; 247 nM in experiment [2]; 131 nM in experiment [3] (setting [7]); 132 nM in experiment [4]; 2980 nM in experiment [6].
